Experimental data: PMC4230943, “Mimicking Hypoxia to Treat Anemia: HIF-Stabilizer BAY 85-3934 (Molidustat) Stimulates Erythropoietin Production without Hypertensive Effects” (PLoS ONE, 2014)

Key:
male Wistar rats [1] = experiment: Subtotal nephrectomy (remnant kidney) model; type: in vivo, rat
Description: In the chronic disease models of subtotal nephrectomy and inflammation, the sodium salt of BAY 85-3934 was used. For administration in drinking water, BAY 85-3934 sodium and enalapril were prepared as 100 mM sodium bicarbonate saline solutions (adjusted to pH 7) at final concentrations of 80 ppm and 30 ppm, respectively. Sham and vehicle control animals received saline only. Unless otherwise stated, chemicals and reagents were purchased from Sigma-Aldrich.
Subtotal nephrectomy was conducted in adult male Wistar rats. Body weight, blood pressure, hematocrit, and blood cell counts were determined at baseline and thereafter at weekly intervals. At baseline, rats were randomly distributed into two groups: those that underwent subtotal nephrectomy and those that underwent a sham procedure without reduction of renal mass. Surgery was performed in deeply anesthetized (2% isoflurane in air) animals. Kidneys were accessed via a dorsolateral incision of the body wall of about 2 cm in length. The right kidney was removed after ligature of the renal peduncle, and subsequently the upper and lower pole of the left kidney were removed, followed by careful hemostasis. Approximately one third of the initial kidney mass remained (removed tissue was weighed to check this was achieved). In the sham-treated animals, both kidneys were exposed before closure of the wound. Three weeks after surgery, animals were allocated to each group in equal proportions with respect to systolic blood pressure and hematocrit values. For 5 weeks, animals were treated twice weekly with rhEPO (100 IU/kg), or once daily with […] (2.5 mg/kg or 5.0 mg/kg) or vehicle. In experiments using enalapril or a combination of BAY 85-3934 sodium and enalapril, study drugs were administered with drinking water. BAY 85-3934 sodium and enalapril were administered in drinking water at concentrations of 80 ppm and 30 ppm, respectively. This was equivalent to approximately 2 mg/kg/day for enalapril and 5 mg/kg/day for BAY 85-3934. Systolic blood pressure and heart rate were determined using the tail-cuff method (a semi-automatic, non-invasive blood pressure monitor; TSE Systems), with three repeated measurements per animal.
(§1) EPO was measured in plasma samples taken from rodents using a commercial ELISA kit (R&D Systems), according to the manufacturer’s instructions. Relative plasma EPO levels were given in picograms per milliliter. In cynomolgus monkeys, EPO was measured using a combination anti-human EPO ELISAs (R&D Systems and Roche Diagnostics), with human EPO as a standard. Values were given as units per liter. For determination of plasma prorenin from rats, a commercial ELISA (Oxford Biomedical Research) was used according to the manufacturer’s instructions. Hemoglobin in rodent blood samples was determined on a Cell-Dyn 3700 apparatus (Abbott Diagnostics). BAY 85-3934 plasma concentrations were determined after protein precipitation with acetonitrile/ammonium acetate using an internal standard, followed by separation using HPLC/mass spectrometry.
As well as anemia and inflammation, CKD is often accompanied by hypertension, upon which treatment with rhEPO may have an unfavorable impact. The effects of BAY 85-3934 were compared with rhEPO in the remnant kidney (subtotal nephrectomy) model in rats.

cynomolgus monkeys = experiment: Comparison of BAY 85-3934 with rhEPO (single dose and 14-day repeat dose); type: in vivo, cynomolgus monkey
Description: Male and female cynomolgus monkeys (2.8–5.6 kg in body weight) were used, which were housed two per cage. Blood samples from conscious cynomolgus monkeys were taken by puncturing a superficial vein. In a 5-day, repeat-dose study of plasma EPO response, BAY 85-3934 was administered at doses of 0.5 mg/kg and 1.5 mg/kg at 0 h, 24 h, 48 h, 72 h, and 96 h. Blood samples were taken at 7 h, 31 h, 55 h, 79 h, 103 h, and 168 h. Erythropoietic parameters were also evaluated after a 2-week treatment period with s.c. administration of rhEPO (100 IU/kg twice weekly at days 1, 4, 8, and 11) and BAY 85-3934 (1.5 mg/kg) once daily.
as §1
In a further study, the efficacy of oral treatment with BAY 85-3934 was evaluated in comparison with rhEPO. Animals were administered a single dose of rhEPO (100 IU/kg) by s.c. injection or BAY 85-3934 (1.5 mg/kg, oral). After administration of rhEPO, plasma concentrations of rhEPO were more than 8-fold higher than the endogenous EPO levels induced by treatment with BAY 85-3934 (Fig. 3B). The area under the curve (AUC) of rhEPO was more than 6-fold higher than the AUC of endogenous EPO. […] Mean reticulocyte counts were 2-fold higher after treatment with rhEPO than after treatment with BAY 85-3934, but returned to baseline values 8 days after treatment cessation.

male Wistar rats [2] = experiment: Comparison of oral BAY 85-3934 with rhEPO on erythropoiesis; type: in vivo, rat; settings: BAY 85-3934 2.5 mg/kg once daily oral; rhEPO 25, 50, 100 IU/kg twice weekly s.c.; p<0.001 at day 30
Description: Male Wistar rats (240–340 g in body weight) were housed with five animals per cage for at least 1 week before experimentation. Blood samples from rats were collected under anesthesia (2% isoflurane in air) by puncturing the retro-orbital vein plexus with a glass capillary. In a repeat-dose, 26-day experiment, animals were administered vehicle or BAY 85-3934 at doses of 0.5 mg/kg, 1.25 mg/kg, 2.5 mg/kg, and 5 mg/kg. PCV was determined at baseline and at weekly intervals after centrifugation in a hematocrit capillary tube (Brand) for 10 min at full speed in a Haemofuge centrifuge (Heraeus). The number of reticulocytes in 5 µl blood was counted after staining with thiazol orange (Becton Dickinson) according to the manufacturer’s instructions by FACS analysis on a BD FACSCalibur system (Becton Dickinson). The efficacy of BAY 85-3934 (2.5 mg/kg, once-daily, oral) was also compared with that of rhEPO (25 IU/kg, 50 IU/kg, and 100 IU/kg, twice-weekly, s.c. injection). […] The efficacy of oral treatment with BAY 85-3934 was compared with that of standard rhEPO treatment in male Wistar rats.

[3] = drinking water, 5 weeks: BAY 85-3934 sodium 80 ppm, enalapril 30 ppm
[4] = single dose rhEPO 100 IU/kg s.c. vs BAY 85-3934 1.5 mg/kg oral

Compound | mean PCV (male Wistar rats [1]; [3]) | mean systolic blood pressure compared with control (male Wistar rats [1]; [3]) | plasma prorenin levels (male Wistar rats [1]; [3]) | systolic blood pressure compared with untreated controls (male Wistar rats [1]; 5 weeks, tail-cuff) | mean PCV (male Wistar rats [1]; BAY 85-3934 2.5 and 5 mg/kg once daily, rhEPO 100 IU/kg twice weekly) | cardiac hypertrophy (male Wistar rats [1]; data not shown) | mean reticulocyte counts relative to BAY 85-3934 treatment (cynomolgus monkeys; 14-day repeat dose) [fold] | time after treatment cessation at which reticulocyte counts returned to baseline (cynomolgus monkeys; 14-day repeat dose) [days] | mean gains of hemoglobin and red blood cells, both treatments compared (cynomolgus monkeys; 14 days, rhEPO 100 IU/kg twice weekly s.c., BAY 85-3934 1.5 mg/kg once daily) | AUC of rhEPO relative to AUC of endogenous EPO (cynomolgus monkeys; [4]) | plasma rhEPO concentration relative to endogenous EPO induced by BAY 85-3934 (cynomolgus monkeys; [4]) | hematocrit compared with the control group (male Wistar rats [2])
[Na+].[O-]c1c(-n2ccnn2)cnn1-c1cc(N2CCOCC2)ncn1 [BAY 85-3934 sodium] | increasing | significantly reduced |  |  |  |  |  |  |  |  |  | 
CCOC(=O)[C@H](CCc1ccccc1)N[C@@H](C)C(=O)N1CCC[C@H]1C(=O)O [enalapril, reference compound] | remained unchanged | significant reduction | reversion of plasma prorenin levels to normal values |  |  |  |  |  |  |  |  | 
rhEPO: Human recombinant EPO (Ortho Biotech), s.c. injection |  |  |  | no difference | significantly increased | manifested | 2 | 8 | almost completely congruent over time | more than 6 fold | more than 8 fold | significant increase
